{"source": "patent US20190015416A1", "about": "“BTK INHIBITORS FOR TREATING NEUROBLASTOMA” (The Chinese University of Hong Kong, priority 2017, published 2019)", "key": {"SH-SY5Y cells [1]": {"system": "SH-SY5Y cells", "experiment": "MTT proliferation assay", "assay_type": "cell-based, human", "settings": "48 hr treatment or transfection, normalized to DMSO", "protocol": "(§1) FIGS. 5A-5G: BTK signaling regulates cell proliferation. […] MTT were performed to measure the cell viability, the absorbance of treated cell groups was normalized to that of DMSO treated cells. (FIGS. 5C, 5D) MTT assay of NBL-S or SH-SY5Y cells transfected with BTK (FIG. 5C) or BTK siRNA (FIG. 5D) at 48 hr after transfection. […] (FIG. 5E) NBL-S cells and SH-SY5Y cells were treated with the inhibitors either separately or the combinations as indicated, and the treated cells were collected at different time points for MTT assay. The absorbance of treated cell groups was normalized to that of control cells treated with DMSO.\n(§2) Neuroblastoma cells were seeded in 96-well plates at a concentration of 5×10^3 per well. After siRNA transfection or inhibitor treatment for 48 hours, 10 ul MTT ([…]) is added into every well followed by incubation for 4 hours. The absorbance was measured at A570 nm."}, "NBL-S cells": {"system": "NBL-S cells", "experiment": "MTT proliferation assay", "assay_type": "cell-based, human", "settings": "48 hr treatment or transfection, normalized to DMSO", "protocol": "as §1, §2"}, "SH-SY5Y tumor xenograft": {"system": "SH-SY5Y tumor xenograft", "settings": "SH-SY5Y xenograft in nude mice", "description": "SH-SY 5Y cells were inoculated into flanks of nude mice. Animals were randomly divided into four groups when tumor xenograft reached 100 mm^3. […] (FIG. 7B) Quantifications of the tumor xenografts weight. The data are expressed as mean values±S.D. (n=4 in each group). **P<0.01. […] Mean±SD values are presented. **p<0.01; *p<0.05. […] (FIG. 7D) Cell proliferations in tumor xenografts were elucidated by immunohistochemical (IHC) analysis with Ki67 antibody. Scale bar represents 50 μm. (FIG. 7E) Quantification of Ki-67-positive cells within the xenografts. Ki-67-positive cells were quantitated from 5 random fields of each tumor xenograft under the microscope (400×) using Image-Pro PLUS V6.0.0.260 software. The values were normalized to those from vehicle treated mice. The data were presented as mean values±S.D. (n=4). **p<0.01; *p<0.05. Apoptosis markers such as cleaved PARP and cleaved Caspase 3 in xenograft tumors were examined by Western blot. […] The signals densities were analyzed by Image J. The relative signals of cleavage PARP to total PARP, cleaved Caspase 3 to tubulin were normalized to those from vehicle treated mice.\nNeuroblastoma xenografts in nude mice were established by injection of SH-SY5Y cells."}, "SH-SY5Y cells [2]": {"system": "SH-SY5Y cells", "experiment": "Cell cycle distribution by flow cytometry", "assay_type": "cell-based, human", "settings": "24 hr, Ibrutinib 2.5 μM, NVP-TAE684 100 nM, Crizotinib 250 nM, control 64.90%"}}}
{"compound": "C[C@@H](Oc1cc(-c2cnn(C3CCNCC3)c2)cnc1N)c1c(Cl)ccc(F)c1Cl", "note": "[Crizotinib]", "values": [{"measurement": "cell proliferation (MTT)", "setting": "SH-SY5Y cells [1]", "value": "insensitive"}, {"measurement": "cell proliferation (MTT)", "setting": "NBL-S cells", "value": "can be inhibited"}, {"measurement": "proliferation of neuroblastoma cells in vivo (Ki67 immunostaining)", "setting": "SH-SY5Y tumor xenograft; 14 days treatment", "value": "inhibited proliferation"}, {"measurement": "cell apoptosis in tumor xenograft (cleaved caspase 3 and PARP)", "setting": "SH-SY5Y tumor xenograft; Western blot", "value": "potentiated cell apoptosis"}, {"measurement": "growth of neuroblastoma xenograft", "setting": "SH-SY5Y tumor xenograft; intraperitoneal injection, 14 days", "value": "only moderately inhibited"}]}
{"compound": "C=CC(=O)N1CCC[C@@H](n2nc(-c3ccc(Oc4ccccc4)cc3)c3c(N)ncnc32)C1", "note": "[Ibrutinib, 1-((R)-3-(4-amino-3-(4-phenoxyphenyl)-1H-pyrazolo[3,4-d]pyrimidin-1-yl)pi-peridin-1-yl)prop-2-en-1-one]", "values": [{"measurement": "cell portion at G0/G1 phase", "setting": "SH-SY5Y cells [2]", "value": 73.8, "unit": "%"}]}
{"compound": "COc1cc(N2CCC(N3CCN(C)CC3)CC2)ccc1Nc1ncc(Cl)c(Nc2ccccc2S(=O)(=O)C(C)C)n1", "note": "[NVP-TAE684]", "values": [{"measurement": "cell proliferation (MTT)", "setting": "SH-SY5Y cells [1]", "value": "can be inhibited"}, {"measurement": "cell proliferation (MTT)", "setting": "NBL-S cells", "value": "can be inhibited"}]}
